Experimental data reported in patent US6248785A, “IL-8 receptor antagonists” (SmithKline Beecham Corporation, priority 1999, dated 2001).

Biological target: T1, recombinant IL-8 Rb, or Type II, receptor (permissive receptor) (Homo sapiens, UniProt P25025)
T1 construct: expressed in transfected cells; host or cells: Chinese hamster ovary (CHO) cells, membranes
T1 sequence (P25025 1-360): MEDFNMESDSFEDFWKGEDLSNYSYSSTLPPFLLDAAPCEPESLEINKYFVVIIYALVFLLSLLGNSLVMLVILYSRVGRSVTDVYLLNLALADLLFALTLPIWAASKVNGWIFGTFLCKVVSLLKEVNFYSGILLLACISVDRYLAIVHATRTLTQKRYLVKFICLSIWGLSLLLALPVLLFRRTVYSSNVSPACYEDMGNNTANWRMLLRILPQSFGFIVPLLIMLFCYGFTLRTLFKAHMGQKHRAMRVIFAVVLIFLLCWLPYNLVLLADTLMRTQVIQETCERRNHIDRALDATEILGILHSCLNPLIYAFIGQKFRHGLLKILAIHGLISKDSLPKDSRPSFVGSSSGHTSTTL
Experiment: IL-8 receptor binding assay, permissive model (125I IL-8 / 125I Gro-a, CHO membranes)
Details: recombinant human IL-8Rb membranes from Chinese hamster ovary cells; 125I IL-8 (0.25 nM) or 125I Gro-a; 1 hour at room temperature
Text: [^125 I] IL-8 (human recombinant) is obtained from Amersham Corp., Arlington Heights, Ill., with specific activity 2000 Ci/mmol. Gro-a is obtained from NEN-New England Nuclear. All other chemicals are of analytical grade. High levels of recombinant human IL-8 type a and b receptors were individually expressed in Chinese hamster ovary cells as described previously (Holmes, et al., Science, 1991, 253, 1278). The Chinese hamster ovary membranes were homogenized according to a previously described protocol (Haour, et al., J Biol Chem., 249 pp 2195-2205 (1974)). Except that the homogenization buffer is changed to 10 mM Tris-HCL, 1 mM MgSO4, 0.5 mM EDTA (ethylene-diaminetetra-acetic acid), 1 mMPMSF (a-toluenesulphonyl fluoride), 0.5 mg/L Leupeptin, pH 7.5. Membrane protein concentration is determined using Pierce Co. micro-assay kit using bovine serum albumin as a standard. All assays are performed in a 96-well micro plate format. Each reaction mixture contains ^125 I IL-8 (0.25 nM) or ^125 I Gro-a and 0.5 μg/mL of IL-8Ra or 1.0 μg/mL of IL-8Rb membranes in 20 mM Bis-Trispropane and 0.4 mM Tris HCl buffers, pH 8.0, containing 1.2 mM MgSO4, 0.1 mM EDTA, 25 mM NaCl and 0.03% CHAPS. […] The filter is then dried and counted on the Betaplate liquid scintillation counter. […]

N#Cc1ccc(NC(=C[N+](=O)[O-])Nc2ccccc2Br)c(O)c1 [Example 1, 1-Nitro-2-[2-hydroxy-4-cyanophenylamino]-2-[2-bromophenylamino]ethylene]
IC50 in the permissive models for IL-8 receptor inhibition: < 50 mg/L
